Like-named read-outs stand apart in the source and are kept apart here.
Assays:
various enzymes [1] = molecular target: T1, various enzymes (Homo sapiens, UniProt P00533, DEL747-749/A750P); details: EGFR(L747-E749del, A750P); 1 uM
Description: (§2) Ambit profiling from Eurofins (formerly Discoverx) was conducted in accordance with the manufacturer's instructions.

various enzymes [2] = molecular target: various enzymes (Homo sapiens, UniProt O15075); format: binding; details: compound 1 uM
Description: (§1) Ambit profiling was conducted in accordance with the manufacturer's instructions.

various enzymes [3] = molecular target: various enzymes (Homo sapiens, UniProt O94804); format: binding; details: compound 1 uM
Description: as §1

various enzymes [4] = molecular target: various enzymes (Homo sapiens, UniProt P08581, M1250T); format: binding
Description: as §1

various enzymes [5] = molecular target: various enzymes (Homo sapiens, UniProt P08581, Y1235D); format: binding
Description: as §1

various enzymes [6] = molecular target: various enzymes (Homo sapiens, UniProt P30530); format: binding; details: compound 1 uM
Description: as §1

various enzymes [7] = molecular target: various enzymes (Homo sapiens, UniProt P42684); format: binding; details: compound 1 uM
Description: as §1

various enzymes [8] = molecular target: T2, various enzymes (Homo sapiens, UniProt P45985); format: binding; details: compound 1 uM
T2 sequence (P45985 1-399): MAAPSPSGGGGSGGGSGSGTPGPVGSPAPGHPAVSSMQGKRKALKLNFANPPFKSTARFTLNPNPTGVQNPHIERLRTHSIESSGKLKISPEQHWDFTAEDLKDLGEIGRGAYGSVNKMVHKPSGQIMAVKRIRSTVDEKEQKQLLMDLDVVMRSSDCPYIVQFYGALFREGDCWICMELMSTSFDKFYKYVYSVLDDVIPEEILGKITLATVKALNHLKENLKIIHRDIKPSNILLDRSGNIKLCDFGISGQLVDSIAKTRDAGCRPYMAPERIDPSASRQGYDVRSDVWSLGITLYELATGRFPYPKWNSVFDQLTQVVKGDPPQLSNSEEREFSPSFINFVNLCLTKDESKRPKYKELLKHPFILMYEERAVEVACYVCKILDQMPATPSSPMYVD
Description: as §1

various enzymes [9] = molecular target: various enzymes (Homo sapiens, UniProt P48729); format: binding; details: compound 1 uM
Description: as §1

various enzymes [10] = molecular target: various enzymes (Homo sapiens, UniProt P53778); format: binding; details: compound 1 uM
Description: as §1

various enzymes [11] = molecular target: various enzymes (Homo sapiens, UniProt P68400); format: binding; details: compound 1 uM
Description: as §1

various enzymes [12] = molecular target: various enzymes (Homo sapiens, UniProt Q13163); format: binding; details: compound 1 uM
Description: as §1

various enzymes [13] = molecular target: various enzymes (Homo sapiens, UniProt Q13546); format: binding; details: compound 1 uM
Description: as §1

various enzymes [14] = molecular target: various enzymes (Homo sapiens, UniProt Q13627); format: binding; details: compound 1 uM
Description: as §1

various enzymes [15] = molecular target: various enzymes (Homo sapiens, UniProt Q16512); format: binding; details: compound 1 uM
Description: as §1

various enzymes [16] = molecular target: various enzymes (Homo sapiens, UniProt Q8NFD2); format: binding; details: compound 1 uM
Description: as §1

various enzymes [17] = molecular target: various enzymes (Homo sapiens, UniProt Q96NX5); format: binding; details: compound 1 uM
Description: as §1

various enzymes [18] = molecular target: various enzymes (Homo sapiens, UniProt Q9BYT3); format: binding; details: compound 1 uM
Description: as §1

various enzymes [19] = molecular target: various enzymes (Homo sapiens, UniProt Q9NQU5); format: binding; details: compound 1 uM
Description: as §1

various enzymes [20] = molecular target: various enzymes (Homo sapiens, UniProt Q9P1W9); format: binding; details: compound 1 uM
Description: as §1

various enzymes [21] = molecular target: various enzymes (Homo sapiens, UniProt Q9Y2H9); format: binding; details: compound 1 uM
Description: as §1

various enzymes [22] = molecular target: various enzymes (Homo sapiens, UniProt Q9Y616); format: binding; details: compound 1 uM
Description: as §1

various enzymes [23] = format: binding; details: statement in words, compared with compound 48
Description: as §1

various enzymes [24] = molecular target: T1, various enzymes; format: binding; set-up: other: EGFR(L747-E749del, A750); 1 uM; other: EGFR(L747-E749del, A750P); other: compound 1 uM
Description: as §1

various enzymes [25] = molecular target: various enzymes (Homo sapiens, UniProt P36888, D835V, form not given)
various enzymes [26] = molecular target: various enzymes (Homo sapiens, UniProt P36888, F691L, form not given)
various enzymes [27] = molecular target: T3, various enzymes (Homo sapiens, UniProt Q6P2M8); details: CAMK1B; 1 uM
Description: as §2

various enzymes [28] = molecular target: various enzymes (Homo sapiens, UniProt Q9Y2I7); details: PIKFYVE; 1 uM
Description: as §2

various enzymes [29] = molecular target: T2, various enzymes; experiment: Enzyme IC50 of compound 48 (Table 3); format: biochemical; set-up: Enzyme IC50; other: MEK4; details: MEK4
various enzymes [30] = molecular target: various enzymes (Homo sapiens, UniProt Q9UKE5); experiment: Enzyme IC50 of compound 48 (Table 3); format: biochemical; set-up: Enzyme IC50; other: TNIK; details: TNIK
various enzymes [31] = molecular target: T3, various enzymes; experiment: Enzyme IC50 of compound 48 (Table 3); format: biochemical; set-up: Enzyme IC50; other: CAMK1B; details: CAMK1B
DYRK1B = molecular target: T4, DYRK1B (Homo sapiens, UniProt Q9Y463); experiment: Invitrogen Zlyte assay, DYRK1B; format: biochemical
T4 construct: purchased Invitrogen (assay run by the vendor)

[32] = system: various enzymes (Homo sapiens); format: binding; details: compound 1 uM
Description: as §1

various enzymes [33] = molecular target: various enzymes (Homo sapiens, UniProt P09769); format: binding; details: compound 1 uM
Description: as §1

Sequence of various enzymes (Homo sapiens, UniProt Q96NX5) (Q96NX5 whole entry): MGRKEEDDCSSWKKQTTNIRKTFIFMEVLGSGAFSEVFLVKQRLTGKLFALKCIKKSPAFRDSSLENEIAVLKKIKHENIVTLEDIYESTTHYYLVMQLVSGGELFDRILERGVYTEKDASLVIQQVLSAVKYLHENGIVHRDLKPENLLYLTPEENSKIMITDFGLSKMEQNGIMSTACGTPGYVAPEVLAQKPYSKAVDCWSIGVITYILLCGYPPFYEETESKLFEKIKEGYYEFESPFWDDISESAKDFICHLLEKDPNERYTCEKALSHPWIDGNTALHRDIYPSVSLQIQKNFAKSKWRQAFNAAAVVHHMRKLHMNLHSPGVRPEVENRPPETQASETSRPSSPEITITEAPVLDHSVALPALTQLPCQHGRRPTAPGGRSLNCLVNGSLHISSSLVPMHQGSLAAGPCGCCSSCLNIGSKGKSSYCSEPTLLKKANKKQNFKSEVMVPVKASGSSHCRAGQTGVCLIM
Sequence of various enzymes (Homo sapiens, UniProt Q9Y616) (Q9Y616 whole entry): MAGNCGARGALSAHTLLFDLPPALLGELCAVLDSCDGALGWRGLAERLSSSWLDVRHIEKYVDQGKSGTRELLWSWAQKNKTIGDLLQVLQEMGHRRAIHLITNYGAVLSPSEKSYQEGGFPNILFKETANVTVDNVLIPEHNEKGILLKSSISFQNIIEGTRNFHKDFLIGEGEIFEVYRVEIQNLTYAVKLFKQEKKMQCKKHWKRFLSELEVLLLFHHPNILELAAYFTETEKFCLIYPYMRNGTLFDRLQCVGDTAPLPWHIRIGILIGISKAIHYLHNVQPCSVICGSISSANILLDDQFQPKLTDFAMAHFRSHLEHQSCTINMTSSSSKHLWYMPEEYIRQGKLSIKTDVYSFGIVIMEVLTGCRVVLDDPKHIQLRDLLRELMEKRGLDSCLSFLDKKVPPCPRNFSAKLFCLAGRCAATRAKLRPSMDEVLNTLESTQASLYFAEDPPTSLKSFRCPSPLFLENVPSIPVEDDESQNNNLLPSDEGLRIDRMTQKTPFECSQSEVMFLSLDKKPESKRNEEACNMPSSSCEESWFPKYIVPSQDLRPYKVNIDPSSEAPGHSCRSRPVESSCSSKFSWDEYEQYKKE
Sequence of various enzymes (Homo sapiens, UniProt P68400) (P68400 whole entry): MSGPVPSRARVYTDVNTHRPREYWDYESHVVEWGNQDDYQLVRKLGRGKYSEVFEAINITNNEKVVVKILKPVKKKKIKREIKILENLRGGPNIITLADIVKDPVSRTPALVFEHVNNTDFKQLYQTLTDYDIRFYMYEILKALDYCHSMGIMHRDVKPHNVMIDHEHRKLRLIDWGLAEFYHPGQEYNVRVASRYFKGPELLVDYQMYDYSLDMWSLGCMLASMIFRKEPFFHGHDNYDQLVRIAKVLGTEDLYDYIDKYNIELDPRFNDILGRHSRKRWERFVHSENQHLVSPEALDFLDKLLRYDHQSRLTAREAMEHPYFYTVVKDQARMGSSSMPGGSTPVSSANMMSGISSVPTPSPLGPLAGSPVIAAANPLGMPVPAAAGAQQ
Sequence of various enzymes (Homo sapiens, UniProt P53778) (P53778 whole entry): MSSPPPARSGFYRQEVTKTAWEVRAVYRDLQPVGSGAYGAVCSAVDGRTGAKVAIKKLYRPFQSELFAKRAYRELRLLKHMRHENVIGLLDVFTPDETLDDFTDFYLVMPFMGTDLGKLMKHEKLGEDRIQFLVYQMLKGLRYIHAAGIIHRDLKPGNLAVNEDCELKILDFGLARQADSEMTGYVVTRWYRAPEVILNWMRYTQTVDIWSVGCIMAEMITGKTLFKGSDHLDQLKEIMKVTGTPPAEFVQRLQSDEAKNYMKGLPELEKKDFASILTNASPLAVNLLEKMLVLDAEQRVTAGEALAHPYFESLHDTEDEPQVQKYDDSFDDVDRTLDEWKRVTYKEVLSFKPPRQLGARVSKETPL
Sequence of various enzymes (Homo sapiens, UniProt O15075) (O15075 whole entry): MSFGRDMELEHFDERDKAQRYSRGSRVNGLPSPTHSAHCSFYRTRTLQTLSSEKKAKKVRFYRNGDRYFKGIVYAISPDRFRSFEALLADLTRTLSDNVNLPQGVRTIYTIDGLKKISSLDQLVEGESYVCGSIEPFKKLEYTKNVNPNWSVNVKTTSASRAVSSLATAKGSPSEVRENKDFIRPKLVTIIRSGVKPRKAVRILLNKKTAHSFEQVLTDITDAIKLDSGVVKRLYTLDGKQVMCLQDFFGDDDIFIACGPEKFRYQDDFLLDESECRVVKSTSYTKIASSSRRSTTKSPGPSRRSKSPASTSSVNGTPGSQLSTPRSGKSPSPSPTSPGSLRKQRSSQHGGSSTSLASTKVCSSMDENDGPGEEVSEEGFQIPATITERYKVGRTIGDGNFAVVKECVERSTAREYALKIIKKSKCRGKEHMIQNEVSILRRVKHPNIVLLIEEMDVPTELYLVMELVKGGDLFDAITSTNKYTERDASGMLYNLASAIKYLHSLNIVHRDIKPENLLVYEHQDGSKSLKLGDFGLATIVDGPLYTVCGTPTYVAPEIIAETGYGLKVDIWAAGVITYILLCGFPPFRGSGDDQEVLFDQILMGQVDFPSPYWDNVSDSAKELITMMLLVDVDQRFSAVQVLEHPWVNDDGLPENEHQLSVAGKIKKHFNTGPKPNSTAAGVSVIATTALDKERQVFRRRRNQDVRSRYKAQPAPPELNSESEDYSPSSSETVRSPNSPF
Sequence of various enzymes (Homo sapiens, UniProt Q16512) (Q16512 whole entry): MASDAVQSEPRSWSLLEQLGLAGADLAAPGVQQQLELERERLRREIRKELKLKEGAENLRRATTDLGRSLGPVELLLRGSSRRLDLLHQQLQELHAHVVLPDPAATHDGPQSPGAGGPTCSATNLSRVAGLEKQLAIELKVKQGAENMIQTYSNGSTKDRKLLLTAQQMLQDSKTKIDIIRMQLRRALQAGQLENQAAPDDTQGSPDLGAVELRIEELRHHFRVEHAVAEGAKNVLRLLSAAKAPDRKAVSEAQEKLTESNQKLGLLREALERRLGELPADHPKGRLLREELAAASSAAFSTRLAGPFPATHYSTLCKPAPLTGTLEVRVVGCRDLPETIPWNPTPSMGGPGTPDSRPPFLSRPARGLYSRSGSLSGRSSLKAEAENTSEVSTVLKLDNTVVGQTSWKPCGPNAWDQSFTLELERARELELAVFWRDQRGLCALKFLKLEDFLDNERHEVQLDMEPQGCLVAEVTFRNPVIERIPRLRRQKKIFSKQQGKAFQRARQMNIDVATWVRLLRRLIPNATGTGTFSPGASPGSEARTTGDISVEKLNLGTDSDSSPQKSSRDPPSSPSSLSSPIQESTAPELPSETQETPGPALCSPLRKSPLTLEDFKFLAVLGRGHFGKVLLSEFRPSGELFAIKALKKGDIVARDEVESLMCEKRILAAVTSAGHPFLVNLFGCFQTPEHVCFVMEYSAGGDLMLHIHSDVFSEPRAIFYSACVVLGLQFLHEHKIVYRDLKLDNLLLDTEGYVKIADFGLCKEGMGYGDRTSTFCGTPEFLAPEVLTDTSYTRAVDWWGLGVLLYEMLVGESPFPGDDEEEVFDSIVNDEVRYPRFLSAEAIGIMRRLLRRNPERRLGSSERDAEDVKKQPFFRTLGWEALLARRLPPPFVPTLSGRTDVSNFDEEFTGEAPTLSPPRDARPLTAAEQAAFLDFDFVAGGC
T3 sequence (Q6P2M8 whole entry): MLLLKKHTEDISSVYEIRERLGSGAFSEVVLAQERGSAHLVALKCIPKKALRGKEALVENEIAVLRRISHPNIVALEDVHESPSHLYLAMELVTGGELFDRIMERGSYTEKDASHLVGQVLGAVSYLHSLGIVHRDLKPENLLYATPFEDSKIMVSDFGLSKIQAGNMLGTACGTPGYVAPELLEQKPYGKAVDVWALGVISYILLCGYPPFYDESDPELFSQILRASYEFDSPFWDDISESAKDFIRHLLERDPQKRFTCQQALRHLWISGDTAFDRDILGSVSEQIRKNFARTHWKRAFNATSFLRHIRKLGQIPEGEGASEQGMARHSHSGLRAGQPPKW
Sequence of various enzymes (Homo sapiens, UniProt Q13163) (Q13163 whole entry): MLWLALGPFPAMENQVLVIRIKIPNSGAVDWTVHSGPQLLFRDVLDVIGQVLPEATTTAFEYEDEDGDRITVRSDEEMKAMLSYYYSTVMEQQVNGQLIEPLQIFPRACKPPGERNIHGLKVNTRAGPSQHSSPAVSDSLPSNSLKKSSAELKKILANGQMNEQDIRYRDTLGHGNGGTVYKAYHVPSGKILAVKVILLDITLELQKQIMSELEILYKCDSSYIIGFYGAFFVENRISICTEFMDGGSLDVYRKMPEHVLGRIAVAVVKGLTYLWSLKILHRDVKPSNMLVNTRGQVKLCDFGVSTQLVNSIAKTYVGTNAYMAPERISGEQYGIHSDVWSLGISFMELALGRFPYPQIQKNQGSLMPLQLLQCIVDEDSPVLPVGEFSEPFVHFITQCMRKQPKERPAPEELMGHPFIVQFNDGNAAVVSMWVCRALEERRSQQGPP
Sequence of various enzymes (Homo sapiens, UniProt Q13546) (Q13546 whole entry): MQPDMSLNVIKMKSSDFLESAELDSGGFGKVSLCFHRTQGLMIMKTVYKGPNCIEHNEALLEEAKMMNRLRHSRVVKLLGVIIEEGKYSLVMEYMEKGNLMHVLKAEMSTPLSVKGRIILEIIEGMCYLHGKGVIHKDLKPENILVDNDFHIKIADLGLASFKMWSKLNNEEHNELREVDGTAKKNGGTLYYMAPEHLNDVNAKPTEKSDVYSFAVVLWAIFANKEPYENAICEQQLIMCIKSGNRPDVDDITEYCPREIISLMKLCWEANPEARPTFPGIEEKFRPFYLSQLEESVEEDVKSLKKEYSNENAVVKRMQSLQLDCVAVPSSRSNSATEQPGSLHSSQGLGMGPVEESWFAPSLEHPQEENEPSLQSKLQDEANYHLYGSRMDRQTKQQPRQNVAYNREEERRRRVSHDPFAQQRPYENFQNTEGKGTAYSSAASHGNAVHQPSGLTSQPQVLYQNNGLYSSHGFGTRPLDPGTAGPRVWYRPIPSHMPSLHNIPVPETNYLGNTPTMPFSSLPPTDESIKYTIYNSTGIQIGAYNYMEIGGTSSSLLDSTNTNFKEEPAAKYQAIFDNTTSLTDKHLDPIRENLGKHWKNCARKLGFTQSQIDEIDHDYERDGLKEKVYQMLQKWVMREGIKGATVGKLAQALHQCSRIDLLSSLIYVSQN

| Compound | Ambit profiling: DCAMKL1 (various enzymes [2]) | Ambit profiling: LOK (various enzymes [3]) | Ambit profiling: ABL2 (various enzymes [7]) | Ambit profiling: MEK4 (various enzymes [8]) | Ambit profiling: CSNK1A1 (various enzymes [9]) | Ambit profiling: p38-gamma (various enzymes [10]) | Ambit profiling: CSNK2A1 (various enzymes [11]) | Ambit profiling: MEK5 (various enzymes [12]) | Ambit profiling: RIPK1 (various enzymes [13]) | Ambit profiling: PKN1 (various enzymes [15]) | Ambit profiling: ANKK1 (various enzymes [16]) | Ambit profiling: CAMK1G (various enzymes [17]) | Ambit profiling: STK33 (various enzymes [18]) | Ambit profiling: PIM2 (various enzymes [20]) | Ambit profiling: MAST1 (various enzymes [21]) | Ambit profiling: IRAK3 (various enzymes [22]) | further results |
| --- | --- | --- | --- | --- | --- | --- | --- | --- | --- | --- | --- | --- | --- | --- | --- | --- | --- |
| CN1Cc2nn(C)cc2-c2cnc3[nH]cc(c3c2)-c2cnn(c2)CCCC1=O [Compound 41, (Z)-31,5-dimethyl-11H,21H,31H-5-aza-2(3,5)-pyrrolo[2,3-b]pyridina-1(4,1),3(4,3)-dipyrazolacyclononaphan-6-one] |  |  |  |  |  |  |  |  |  |  |  |  |  |  |  |  | Ambit profiling (various enzymes [1]): 79 |
| CC(C)N1Cc2nn(C)cc2-c2cnc3[nH]cc(c3c2)-c2cn(nc2C(F)(F)F)CCCC1=O [Compound 45, (Z)-5-isopropyl-31-methyl-13-(trifluoromethyl)-11H,21H,31H-5-aza-2(3,5)-pyrrolo[2,3-b]pyridina-1(4,1),3(4,3)-dipyrazolacyclononaphan-6-one] | 80 | 4.7 | 42 | 0.5 | 78 | 74 | 19 | 11 | 85 | 72 | 100 | 88 | 71 | 100 | 22 | 2.6 | Ambit profiling: MET(M1250T) (various enzymes [4]; compound 1 uM): 4.3; Ambit profiling: MET(Y1235D) (various enzymes [5]; compound 1 uM): 4.8; Ambit profiling: AXL (various enzymes [6]): 0; Ambit profiling: DYRK1A (various enzymes [14]): 0.3; Ambit profiling: PAK6 (various enzymes [19]): 70; selectivity for DYRK1A (Ambit profiling, Table 4) (various enzymes [23]): not as selective for DYRK1A as compound 48; Ambit profiling: EGFR(L747-E749del, A750P) (various enzymes [24]; compound 1 uM): 10 |
| CN1Cc2nn(C)c(C#N)c2-c2cnc3[nH]cc(c3c2)-c2cn(nc2C(F)(F)F)CCCC1=O [Compound 48, (Z)-31,5-dimethyl-6-oxo-13-(trifluoromethyl)-11H,21H,31H-5-aza-2(3,5)-pyrrolo[2,3-b]pyridina-1(4,1),3(4,3)-dipyrazolacyclononaphane-35-carbonitrile] |  |  |  |  |  |  |  |  |  |  |  |  |  |  |  |  | Ambit profiling (various enzymes [25]): 2.2; Ambit profiling (various enzymes [26]): 46; Ambit profiling (various enzymes [27]): 2.9; Ambit profiling (various enzymes [28]): 94; IC50 (various enzymes [29]): 173 nM; IC50 (various enzymes [30]): 87 nM; IC50 (various enzymes [31]): 830 nM |
| COc1c2c(nn1C)CN(C(C)C)C(=O)CCCn1cc(c(C(F)(F)F)n1)-c1c[nH]c3ncc-2cc13 [Compound 50, (Z)-5-isopropyl-35-methoxy-31-methyl-13-(trifluoromethyl)-11H,21H,31H-5-aza-2(3,5)-pyrrolo[2,3-b]pyridina-1(4,1),3(4,3)-dipyrazolacyclononaphan-6-one] | 54 | 0.4 | 22 | 16 | 74 | 75 | 59 | 0 | 59 | 34 | 94 | 54 | 23 | 100 | 40 | 15 | IC50 (DYRK1B): 146 nM; Ambit profiling: PAK8 [32]: 86; Ambit profiling: MET(M1250T) (various enzymes [4]): 4.2; Ambit profiling: MET(Y1235D) (various enzymes [5]): 1.4; Ambit profiling: FGR (various enzymes [33]): 5.2; Ambit profiling: EGFR(L747-E749del, A750P) (various enzymes [24]): 3.1 |
